Measurements from PubChem BioAssay AID248 (DTP/NCI, 2004).
Inconclusive results and toxic doses are left out. Cut-off read from the data, not from the text of the source: active = T/C of 150% or more; inactive = T/C below 125%.

System: L1210 leukemia ip in BDF1 mice, survival T/C
Assay: NCI In Vivo Anticancer Drug Screen. Data for tumor model L1210 Leukemia (intraperitoneal) in B6D2F1 (BDF1) mice
Conditions: endpoint: mean survival time, higher = longer survival
Outline: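 Antitumor effect is assessed in tumor-bearing animals. Survival in the compound arm is compared with a vehicle-dosed control arm and expressed as their quotient.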

[1] = dose: 100.0 mg/kg/injection, schedule: Q04DX002 (ip), vehicle: Klucel (hydroxypropylcellulose) (HPC)
[2] = dose: 100.0 mg/kg/injection, schedule: Q04DX003 (ip), vehicle: saline with Tween-80
[3] = dose: 200.0 mg/kg/injection, schedule: Q04DX003 (ip), vehicle: saline with Tween-80
[4] = dose: 400.0 mg/kg/injection, schedule: Q04DX003 (ip), vehicle: saline with Tween-80
[5] = dose: 50.0 mg/kg/injection, schedule: Q01DX001 (ip), vehicle: other
[6] = dose: 100.0 mg/kg/injection, schedule: Q04DX002 (ip), vehicle: saline with Tween-80
[7] = dose: 100.0 mg/kg/injection, schedule: Q01DX001 (ip), vehicle: saline
[8] = dose: 400.0 mg/kg/injection, schedule: Q01DX001 (ip), vehicle: saline
[9] = dose: 100.0 mg/kg/injection, schedule: Q04DX003 (ip), vehicle: saline
[10] = dose: 200.0 mg/kg/injection, schedule: Q04DX003 (ip), vehicle: saline
[11] = dose: 400.0 mg/kg/injection, schedule: Q04DX003 (ip), vehicle: saline
[12] = dose: 100.0 mg/kg/injection, schedule: Q01DX009 (ip), vehicle: Klucel (hydroxypropylcellulose) (HPC)

Measured: T/C

Cc1nc(N)ncc1CCC1OCCO1
active: [1] 175 % of control
inactive: dose: 25.0 mg/kg/injection, schedule: Q04DX002 (ip), vehicle: saline 91 % of control | dose: 50.0 mg/kg/injection, schedule: Q04DX002 (ip), vehicle: saline 100 % of control | dose: 100.0 mg/kg/injection, schedule: Q04DX002 (ip), vehicle: saline 107 % of control | dose: 200.0 mg/kg/injection, schedule: Q04DX002 (ip), vehicle: saline 103 % of control

N=C(N)SC1c2ccccc2-c2ccc(Br)cc21 (stereo not given)
inactive: dose: 75.0 mg/kg/injection, schedule: Q01DX001 (ip), vehicle: carboxymethylcellulose (CMC) 104 % of control | dose: 150.0 mg/kg/injection, schedule: Q01DX001 (ip), vehicle: carboxymethylcellulose (CMC) 91 % of control

c1ccc(P(=NC2CCCC2)(c2ccccc2)c2ccccc2)cc1
inactive: [2] 89 % of control | [3] 92 % of control | [4] 87 % of control

COC1(c2ccc(Br)cc2)OC1(C)C (stereo not given)
inactive: dose: 25.0 mg/kg/injection, schedule: Q01DX009 (ip), vehicle: water 95 % of control | dose: 50.0 mg/kg/injection, schedule: Q01DX009 (ip), vehicle: water 101 % of control | dose: 100.0 mg/kg/injection, schedule: Q01DX009 (ip), vehicle: water 106 % of control | dose: 200.0 mg/kg/injection, schedule: Q01DX009 (ip), vehicle: water 107 % of control | dose: 400.0 mg/kg/injection, schedule: Q01DX009 (ip), vehicle: water 101 % of control

Cc1ccc(NC(=O)CBr)cc1
inactive: [5] 96 % of control

CN(C)Cc1c(O)ccc2ccccc12
inactive: [6] 100 % of control | dose: 200.0 mg/kg/injection, schedule: Q04DX002 (ip), vehicle: saline with Tween-80 90 % of control

Cc1ccccc1C(=O)c1ccccc1C
inactive: [5] 118 % of control | dose: 100.0 mg/kg/injection, schedule: Q01DX001 (ip), vehicle: other 102 % of control | dose: 200.0 mg/kg/injection, schedule: Q01DX001 (ip), vehicle: other 113 % of control | dose: 400.0 mg/kg/injection, schedule: Q01DX001 (ip), vehicle: other 107 % of control

CCOC(CSC)OCC
inactive: dose: 100.0 mg/kg/injection, schedule: Q01DX009 (sc), vehicle: olive oil, sesame oil, peanut oil 99 % of control | dose: 100.0 mg/kg/injection, schedule: Q04DX003 (sc), vehicle: olive oil, sesame oil, peanut oil 102 % of control | dose: 200.0 mg/kg/injection, schedule: Q01DX009 (sc), vehicle: olive oil, sesame oil, peanut oil 94 % of control | dose: 200.0 mg/kg/injection, schedule: Q04DX003 (sc), vehicle: olive oil, sesame oil, peanut oil 96 % of control | dose: 400.0 mg/kg/injection, schedule: Q01DX009 (sc), vehicle: olive oil, sesame oil, peanut oil 91 % of control | dose: 400.0 mg/kg/injection, schedule: Q04DX003 (sc), vehicle: olive oil, sesame oil, peanut oil 94 % of control

CC(OC(=O)c1ccccc1)C(N)=S (stereo not given)
inactive: [7] 102 % of control | dose: 100.0 mg/kg/injection, schedule: Q01DX009 (ip), vehicle: acetone 93 % of control | dose: 100.0 mg/kg/injection, schedule: Q04DX003 (ip), vehicle: acetone 101 % of control | dose: 200.0 mg/kg/injection, schedule: Q01DX001 (ip), vehicle: saline 93 % of control | dose: 200.0 mg/kg/injection, schedule: Q01DX009 (ip), vehicle: acetone 95 % of control | dose: 200.0 mg/kg/injection, schedule: Q04DX003 (ip), vehicle: acetone 102 % of control | [8] 103 % of control | dose: 400.0 mg/kg/injection, schedule: Q01DX009 (ip), vehicle: acetone 96 % of control | dose: 400.0 mg/kg/injection, schedule: Q04DX003 (ip), vehicle: acetone 102 % of control

Cc1cc2c(C(C)C)c(O)c(O)c(C=O)c2c(O)c1-c1c(C)cc2c(C(C)C)c(O)c(O)c(C=O)c2c1O
inactive: dose: 0.25 mg/kg/injection, schedule: Q01DX009 (ip), vehicle: saline 105 % of control | dose: 0.5 mg/kg/injection, schedule: Q01DX009 (ip), vehicle: saline 110 % of control | dose: 1.0 mg/kg/injection, schedule: Q01DX009 (ip), vehicle: saline 106 % of control | dose: 2.0 mg/kg/injection, schedule: Q01DX009 (ip), vehicle: saline 106 % of control | dose: 4.0 mg/kg/injection, schedule: Q01DX009 (ip), vehicle: saline 108 % of control | dose: 8.0 mg/kg/injection, schedule: Q01DX009 (ip), vehicle: saline 101 % of control

CC(C)c1cc(C(C)C)c(C(=O)Oc2c(Br)cc(Br)cc2Br)c(C(C)C)c1
inactive: dose: 100.0 mg/kg/injection, schedule: Q01DX009 (ip), vehicle: saline with Tween-80 95 % of control | [2] 98 % of control | dose: 200.0 mg/kg/injection, schedule: Q01DX009 (ip), vehicle: saline with Tween-80 92 % of control | [3] 93 % of control | [4] 90 % of control

Nc1cc(=O)[nH][nH]1
inactive: dose: 100.0 mg/kg/injection, schedule: Q01DX009 (ip), vehicle: saline 98 % of control | [9] 102 % of control | dose: 200.0 mg/kg/injection, schedule: Q01DX009 (ip), vehicle: saline 106 % of control | dose: 200.0 mg/kg/injection, schedule: Q01DX Z (ip), vehicle: carboxymethylcellulose (CMC) 115 % of control | dose: 200.0 mg/kg/injection, schedule: Q01DX Z (ip), vehicle: saline 115 % of control | [10] 107 % of control | dose: 300.0 mg/kg/injection, schedule: Q01DX Z (ip), vehicle: carboxymethylcellulose (CMC) 115 % of control | dose: 300.0 mg/kg/injection, schedule: Q01DX Z (ip), vehicle: saline 123 % of control | dose: 400.0 mg/kg/injection, schedule: Q01DX009 (ip), vehicle: saline 120 % of control | [11] 105 % of control | dose: 450.0 mg/kg/injection, schedule: Q01DX Z (ip), vehicle: carboxymethylcellulose (CMC) 121 % of control | dose: 675.0 mg/kg/injection, schedule: Q01DX Z (ip), vehicle: saline 112 % of control

COc1ccc(C(=O)CCS/C(CCO)=C(\C)N(C=O)Cc2cnc(C)nc2N)cc1
inactive: [9] 101 % of control | [10] 101 % of control | [11] 101 % of control

CC1CCC(=O)OCCCC(=O)C1 (stereo not given)
inactive: [7] 93 % of control | [8] 95 % of control

CCOC(=O)Cn1c(=O)cc(C=O)c2ccccc21
inactive: dose: 100.0 mg/kg/injection, schedule: Q01DX001 (ip), vehicle: carboxymethylcellulose (CMC) 91 % of control | dose: 200.0 mg/kg/injection, schedule: Q01DX001 (ip), vehicle: carboxymethylcellulose (CMC) 91 % of control | dose: 400.0 mg/kg/injection, schedule: Q01DX001 (ip), vehicle: carboxymethylcellulose (CMC) 89 % of control

COc1ccc2ccccc2c1-c1c([N+](=O)[O-])ccc2ccccc12
inactive: dose: 12.5 mg/kg/injection, schedule: Q04DX002 (ip), vehicle: saline with Tween-80 97 % of control | dose: 25.0 mg/kg/injection, schedule: Q04DX002 (ip), vehicle: saline with Tween-80 90 % of control | dose: 50.0 mg/kg/injection, schedule: Q04DX002 (ip), vehicle: saline with Tween-80 87 % of control | [6] 93 % of control

CCCCCCC1C/C(=C/N(C)C)C(=O)O1 (stereo not given)
inactive: [1] 90 % of control | dose: 200.0 mg/kg/injection, schedule: Q04DX002 (ip), vehicle: Klucel (hydroxypropylcellulose) (HPC) 90 % of control | dose: 400.0 mg/kg/injection, schedule: Q04DX002 (ip), vehicle: Klucel (hydroxypropylcellulose) (HPC) 93 % of control

OC(C/C=C/c1ccccc1)c1ccccc1 (stereo not given)
inactive: dose: 50.0 mg/kg/injection, schedule: Q01DX009 (ip), vehicle: Klucel (hydroxypropylcellulose) (HPC) 91 % of control | [12] 97 % of control

COc1ccc(NC(=O)Oc2ccc(NC(C)=O)cc2)c(OC)c1
inactive: [12] 95 % of control | dose: 200.0 mg/kg/injection, schedule: Q01DX009 (ip), vehicle: Klucel (hydroxypropylcellulose) (HPC) 97 % of control | dose: 400.0 mg/kg/injection, schedule: Q01DX009 (ip), vehicle: Klucel (hydroxypropylcellulose) (HPC) 92 % of control
